Experimental data as given in ChEMBL document CHEMBL1201862, “PubChem BioAssay data set” (2004).
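Compound exposure: 48 hours, 5 concentrations, 96-well plates. The concentration for 50% growth inhibition is given as GI50.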 Active and inactive are the calls of the source. Rule as the data show it: active = GI50 up to about 1.1 µM and inactive = higher.

What was measured:
Assay in all cases: DTP human tumour cell line panel, 48 h
KM-20L2 = test system: KM-20L2
M19-MEL = test system: M19-MEL
MOLT-4 = test system: MOLT-4
HT-29 = test system: HT-29
SNB-78 = test system: SNB-78
HOP-92 = test system: HOP-92
SF-268 = test system: SF-268
DMS-114 = test system: DMS-114
M14 = test system: M14
DLD-1 = test system: DLD-1
LOX IMVI = test system: LOX IMVI
CAKI-1 = test system: CAKI-1
NCI/ADR-RES = test system: NCI/ADR-RES
MCF7 = test system: MCF7
MDA-N = test system: MDA-N
PC-3 = test system: PC-3
MDA-MB-231 = test system: MDA-MB-231
T47D = test system: T47D
Hs-578T = test system: Hs-578T
MDA-MB-435 = test system: MDA-MB-435

| SMILES | GI50 (KM-20L2) | GI50 (M19-MEL) | GI50 (MOLT-4) | GI50 (HT-29) | GI50 (SNB-78) | GI50 (HOP-92) | GI50 (SF-268) | GI50 (DMS-114) | GI50 (M14) | GI50 (DLD-1) | GI50 (LOX IMVI) | GI50 (CAKI-1) | GI50 (NCI/ADR-RES) | GI50 (MCF7) | GI50 (MDA-N) | GI50 (PC-3) | GI50 (MDA-MB-231) | GI50 (T47D) | GI50 (Hs-578T) | GI50 (MDA-MB-435) |
| --- | --- | --- | --- | --- | --- | --- | --- | --- | --- | --- | --- | --- | --- | --- | --- | --- | --- | --- | --- | --- |
| COc1ccc(CCn2cncn2)cc1 | > 100 µM (inactive) | > 100 µM (inactive) | > 100 µM (inactive) | > 100 µM (inactive) | > 100 µM (inactive) | > 100 µM (inactive) | > 100 µM (inactive) | > 100 µM (inactive) | > 100 µM (inactive) | > 100 µM (inactive) |  |  |  |  |  |  |  |  |  |  |
| CCN(CC)c1cccc2c1/C(=N/O)CCCC2 | > 100 µM (inactive) | > 100 µM (inactive) | 65.8 µM (inactive) | 97.1 µM (inactive) | > 100 µM (inactive) |  | > 100 µM (inactive) | 52.8 µM (inactive) |  |  | > 100 µM (inactive) |  |  |  |  |  |  |  |  |  |
| CC(=O)OCc1c(C)c2ccccc2n1C(C)=O | 53 µM (inactive) | 53 µM (inactive) | 29.7 µM (inactive) | 59.2 µM (inactive) |  | 98.6 µM (inactive) | 43.6 µM (inactive) | 22.6 µM (inactive) | > 100 µM (inactive) |  | 45 µM (inactive) | > 100 µM (inactive) |  |  |  |  |  |  |  |  |
| C=C1C(=O)OC2CC1CCC1(C)OC1CCC(C)=CCCC2(C)O (stereo unspecified) | 2.82 µM (inactive) | 4.2 µM (inactive) | 1.87 µM (inactive) | 4.06 µM (inactive) | 7.74 µM (inactive) | 2.26 µM (inactive) | 5.36 µM (inactive) | 2.74 µM (inactive) |  | 1.81 µM (inactive) | 2.24 µM (inactive) | 2.4 µM (inactive) | 1.8 µM (inactive) | 3.82 µM (inactive) |  |  |  |  |  |  |
| COc1cc2c(ccc3c4cc(OC)c(OC)cc4c[n+](C)c23)cc1O [FAGARONINE] | > 75 µM (inactive) | 23.9 µM (inactive) | 4.28 µM (inactive) | > 73.3 µM (inactive) | 26.1 µM (inactive) | 23.6 µM (inactive) | 0.0588 µM (active) | 2.37 µM (inactive) |  | 67.5 µM (inactive) | > 33 µM (inactive) | 61.7 µM (inactive) | 63.2 µM (inactive) | 4.15 µM (inactive) |  |  |  |  |  |  |
| C=CCCN1CCc2c([nH]c3ccccc23)C1C(=O)O (stereo unspecified) | > 100 µM (inactive) | > 100 µM (inactive) | > 100 µM (inactive) | > 100 µM (inactive) | > 100 µM (inactive) | > 100 µM (inactive) | 78.3 µM (inactive) | 63.4 µM (inactive) | > 100 µM (inactive) | > 100 µM (inactive) | > 100 µM (inactive) | > 100 µM (inactive) |  |  |  |  |  |  |  |  |
| Cn1cc(-c2csc(-c3cn(C)c4ccccc34)n2)c2ccccc21 |  |  | 14.1 µM (inactive) | > 100 µM (inactive) |  | 20.8 µM (inactive) | 58.2 µM (inactive) |  | 26.7 µM (inactive) |  | 36.4 µM (inactive) | 17.8 µM (inactive) | > 100 µM (inactive) | 45.5 µM (inactive) | 24.9 µM (inactive) | 21.9 µM (inactive) | 17.3 µM (inactive) | 2.81 µM (inactive) | > 100 µM (inactive) | 26.4 µM (inactive) |
| O=C1C=CC(=O)c2c(Cl)ccc(O)c21 | 13.8 µM (inactive) | 16.3 µM (inactive) | 4.54 µM (inactive) | 21.6 µM (inactive) | 22 µM (inactive) | 2.75 µM (inactive) | 18.4 µM (inactive) | 16.8 µM (inactive) |  | 13.9 µM (inactive) | 18.2 µM (inactive) | 11.1 µM (inactive) | 18.7 µM (inactive) | 13.9 µM (inactive) |  |  |  |  |  |  |
| CN(C)C(=O)NCCN1CCCCCc2ccccc21 |  |  | 93.1 µM (inactive) | > 100 µM (inactive) |  | 32.4 µM (inactive) | > 100 µM (inactive) |  | 46.3 µM (inactive) |  | > 100 µM (inactive) | > 100 µM (inactive) | > 100 µM (inactive) | > 100 µM (inactive) | > 100 µM (inactive) | > 100 µM (inactive) | 57.1 µM (inactive) | > 100 µM (inactive) | > 100 µM (inactive) | 53 µM (inactive) |
| CC1=C2C3OC(=O)C(C)C3CCC2(C)C=C/C1=N\c1ccccc1 (stereo unspecified) | > 100 µM (inactive) | > 100 µM (inactive) | > 100 µM (inactive) | > 100 µM (inactive) | > 100 µM (inactive) | > 100 µM (inactive) | > 100 µM (inactive) | > 100 µM (inactive) |  | > 100 µM (inactive) | > 100 µM (inactive) |  | > 100 µM (inactive) | > 100 µM (inactive) |  |  |  |  |  |  |
